Measurements reported in article PMC5309245, “Discovery and Characterization of Diazenylaryl Sulfonic Acids as Inhibitors of Viral and Bacterial Neuraminidases” (Frontiers in Microbiology, 2017).
Values joined by “and” are separate entries in the source; they are usually repeats but may differ in a detail not shown here. Equal entries are not always repeated.

Experiments:
[1] = tested on: IAV 5258/09 NA; test: Hemagglutination (HA)-based NA inhibition assay, IAV 5258/09; format: cell-based, influenza A virus A/Jena/5258/2009 (H1N1); conditions: human erythrocytes
[2] = tested on: influenza A virus HK/68; test: microbe, parasite or virus in culture; format: cell-based, influenza A virus A/Hong Kong/68 (H3N2); conditions: Influenza A virus, MDCK, 48 h, read-out: 50% inhibitory concentration, influenza A virus HK/68
[3] = tested on: influenza A virus WSN/33; test: microbe, parasite or virus in culture; format: cell-based, influenza A virus A/WSN/1933 (H1N1); conditions: Influenza A virus, WSN, MDCK, 48 h, read-out: 50% inhibitory concentration, influenza A virus WSN/33
[4] = biological target: T1, S. pneumoniae DSM20566 NA (Streptococcus pneumoniae, UniProt P62575); test: HA-based NA inhibition assay, S. pneumoniae DSM20566; format: cell-based; conditions: human erythrocytes
T1 construct: host or cells: either rNanA from E. coli BL21(DE3) or total precipitated protein of S. pneumoniae DSM20566

[5] = tested on: S. pneumoniae DSM20566 biofilm; test: Biofilm inhibition assay; format: cell-based, Streptococcus pneumoniae DSM20566; conditions: Streptococcus pneumoniae, DSM20566; 50 μM; read-out: Inhibition of biofilm formation at the maximum tested concentration
[6] = biological target: T2, S. pneumoniae DSM20566 NA (NanA) (Streptococcus pneumoniae, UniProt P62575); test: FL NA inhibition assay, S. pneumoniae DSM20566; format: biochemical; conditions: MUNANA substrate; read-out: NA inhibition using FL assay IC50, S. p. DSM20566
T2 construct: host or cells: either rNanA from E. coli BL21(DE3) or total precipitated protein of S. pneumoniae DSM20566

[7] = biological target: Influenza virus A/WSN/33 NA-wt (whole virus) (Influenza A virus, UniProt P03470); format: biochemical, influenza A virus A/WSN/1933 (H1N1)
[8] = tested on: influenza A virus 8178/09; test: microbe, parasite or virus in culture; format: cell-based, influenza A virus A/Jena/8178/2009 (H1N1); conditions: Influenza A virus, MDCK, 48 h, read-out: 50% inhibitory concentration, influenza A virus 8178/09
[9] = biological target: S. pneumoniae recombinant NanA 20566_CC (Streptococcus pneumoniae, UniProt P62575); test: biochemical; parameters: species or system Streptococcus pneumoniae DSM20566
[10] = biological target: S. pneumoniae recombinant NanA 20566_LC (Streptococcus pneumoniae, UniProt P62575); test: biochemical; parameters: species or system Streptococcus pneumoniae DSM20566
[11] = tested on: S. pneumoniae DSM20566; test: Microtiter broth microdilution assay, planktonic growth; format: cell-based, Streptococcus pneumoniae DSM20566; conditions: Streptococcus pneumoniae, DSM20566; 18 h, maximum 50 μM; read-out: 50% inhibitory concentration, S. pneumoniae DSM20566 planktonic growth
[12] = biological target: IAV HK/68 NA (whole virus) (Influenza A virus, UniProt Q91MA2); test: biochemical; parameters: species or system influenza A virus A/Hong Kong/68 (H3N2); conditions: NA inhibition using FL assay IC50, IAV HK/68
[13] = biological target: S. pneumoniae recombinant NanA 9400_LC (Streptococcus pneumoniae, UniProt P62575); test: biochemical; parameters: species or system Streptococcus pneumoniae CJ9400
[14] = tested on: WSN/33; format: cell-based, influenza A virus A/WSN/1933 (H1N1)
[15] = tested on: human erythrocytes; format: cell-based; conditions: human erythrocytes, 4 h at 37°C and 12 h at 4°C
Method: (§1) Viral (whole virus) and bacterial NA activity as well as their inhibition were measured by using a fluorescence (FL) assay with the substrate 2′-(4-methylumbelliferyl)-α-D-N-acetylneuraminic acid sodium salt hydrate (MUNANA, 100 μM; Sigma-Aldrich GmbH, Taufkirchen, Germany), and/or a hemagglutination (HA)-based NA inhibition assay (HA assay) with human erythrocytes (Institute of Transfusion Medicine, University Hospital Jena, Jena, Germany), both assays as published recently (Richter et al., [2015]). Recombinant NanA (rNanA) and total precipitated bacterial protein of S. pneumoniae DSM20566 were used in FL and HA assays. Interference of the compounds with the FL signal (self-fluorescence and quenching) was excluded as described previously (Richter et al., [2015]). […] Each compound was tested at least three times in both NA inhibition assays.
Supplementary Table 1. […]
eTest compounds lysed the human erythrocytes (4 h at 37°C and 12 h at 4°C).

[16] = biological target: S. pneumoniae recombinant NanA 9400_CC (Streptococcus pneumoniae, UniProt P62575); test: biochemical; format: biochemical, Streptococcus pneumoniae CJ9400
[17] = tested on: human erythrocytes; format: cell-based; conditions: human erythrocytes, 2 h at 4°C
Method: as §1
Supplementary Table 1. Assay interference phenomena of test compounds in the HA-based […]
sample concentrations [µM] in viral HA-assay bacterial HA-assay […]
hem- prevention of erythrocyte hem- erythrocyte agglutinationa virus-induced lysisc agglutinationd lysise […]
cTest compounds lysed the human erythrocytes (2 h at 4°C). […]

[18] = in vitro; conditions: dog
[19] = tested on: Influenza virus A/Jena/8178/09; format: cell-based, influenza A virus A/Jena/8178/2009 (H1N1)
[20] = biological target: S. pneumoniae recombinant NanA 8919_LC (Streptococcus pneumoniae, UniProt P62575); test: biochemical; format: biochemical, Streptococcus pneumoniae CF8919
[21] = tested on: S. pneumoniae DSM20566; test: Bactericidal or bacteriostatic activity (subculture on blood agar); format: cell-based, Streptococcus pneumoniae DSM20566; conditions: 50 µM
[22] = tested on: 8178/09-, WSN/33-, or HK/68-induced cytopathic effect; test: CPE inhibition assay (viruses not separated); format: cell-based; conditions: Influenza A virus, MDCK, read-out: IC50 of inhibition of the 8178/09-, WSN/33-, or HK/68-induced cytopathic effect

Chain of S. pneumoniae recombinant NanA 20566_CC (P62575 311-833): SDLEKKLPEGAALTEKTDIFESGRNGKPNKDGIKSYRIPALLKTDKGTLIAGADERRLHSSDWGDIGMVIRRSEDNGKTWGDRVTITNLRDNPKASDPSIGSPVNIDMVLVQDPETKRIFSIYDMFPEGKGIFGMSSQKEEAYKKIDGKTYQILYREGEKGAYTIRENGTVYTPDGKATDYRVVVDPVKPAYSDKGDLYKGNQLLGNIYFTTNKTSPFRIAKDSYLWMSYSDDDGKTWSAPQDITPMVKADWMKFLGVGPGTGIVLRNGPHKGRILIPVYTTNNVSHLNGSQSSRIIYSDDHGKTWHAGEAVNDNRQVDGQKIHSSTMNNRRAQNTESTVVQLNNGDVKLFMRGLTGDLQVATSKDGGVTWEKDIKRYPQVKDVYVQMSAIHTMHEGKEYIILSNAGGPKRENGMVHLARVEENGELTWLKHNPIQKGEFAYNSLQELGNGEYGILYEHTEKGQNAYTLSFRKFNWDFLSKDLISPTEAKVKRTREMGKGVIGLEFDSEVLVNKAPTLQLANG
Chain of S. pneumoniae recombinant NanA 9400_CC (P62575 311-833): as above
Chain of S. pneumoniae recombinant NanA 20566_LC (P62575 116-833): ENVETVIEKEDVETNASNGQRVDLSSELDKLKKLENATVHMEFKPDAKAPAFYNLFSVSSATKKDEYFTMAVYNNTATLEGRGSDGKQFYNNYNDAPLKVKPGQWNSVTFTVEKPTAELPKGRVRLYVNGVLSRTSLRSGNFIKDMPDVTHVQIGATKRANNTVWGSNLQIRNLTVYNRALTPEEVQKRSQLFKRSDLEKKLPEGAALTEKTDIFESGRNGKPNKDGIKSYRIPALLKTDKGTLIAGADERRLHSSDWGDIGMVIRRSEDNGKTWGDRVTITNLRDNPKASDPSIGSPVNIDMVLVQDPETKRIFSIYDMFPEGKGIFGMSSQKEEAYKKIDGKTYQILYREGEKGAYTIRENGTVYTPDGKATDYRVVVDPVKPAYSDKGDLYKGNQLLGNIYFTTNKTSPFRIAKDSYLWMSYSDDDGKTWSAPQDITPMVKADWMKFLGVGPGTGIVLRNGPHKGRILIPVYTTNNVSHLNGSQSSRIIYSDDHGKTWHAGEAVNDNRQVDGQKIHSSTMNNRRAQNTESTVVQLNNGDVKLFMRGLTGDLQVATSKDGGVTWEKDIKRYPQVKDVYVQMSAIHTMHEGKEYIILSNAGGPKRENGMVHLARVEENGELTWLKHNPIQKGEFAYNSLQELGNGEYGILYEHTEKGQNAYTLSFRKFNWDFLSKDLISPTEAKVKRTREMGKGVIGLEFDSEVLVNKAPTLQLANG
Chain of S. pneumoniae recombinant NanA 8919_LC (P62575 116-833): as above
Chain of S. pneumoniae recombinant NanA 9400_LC (P62575 116-833): as above
Chain of Influenza virus A/WSN/33 NA-wt (whole virus) (P03470 whole entry, looked up): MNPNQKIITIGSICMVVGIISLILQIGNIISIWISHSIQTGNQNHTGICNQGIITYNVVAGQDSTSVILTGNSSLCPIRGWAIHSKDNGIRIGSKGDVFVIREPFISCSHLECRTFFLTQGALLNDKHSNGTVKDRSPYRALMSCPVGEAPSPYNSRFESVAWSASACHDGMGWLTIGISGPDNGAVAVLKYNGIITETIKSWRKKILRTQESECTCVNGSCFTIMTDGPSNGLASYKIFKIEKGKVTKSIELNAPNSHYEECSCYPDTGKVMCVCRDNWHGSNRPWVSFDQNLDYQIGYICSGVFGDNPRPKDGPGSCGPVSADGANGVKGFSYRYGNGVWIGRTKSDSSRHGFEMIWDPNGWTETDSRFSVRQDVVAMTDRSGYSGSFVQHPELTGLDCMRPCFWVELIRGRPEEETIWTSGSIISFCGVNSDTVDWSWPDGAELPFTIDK
Chain of IAV HK/68 NA (whole virus) (Q91MA2 whole entry, looked up): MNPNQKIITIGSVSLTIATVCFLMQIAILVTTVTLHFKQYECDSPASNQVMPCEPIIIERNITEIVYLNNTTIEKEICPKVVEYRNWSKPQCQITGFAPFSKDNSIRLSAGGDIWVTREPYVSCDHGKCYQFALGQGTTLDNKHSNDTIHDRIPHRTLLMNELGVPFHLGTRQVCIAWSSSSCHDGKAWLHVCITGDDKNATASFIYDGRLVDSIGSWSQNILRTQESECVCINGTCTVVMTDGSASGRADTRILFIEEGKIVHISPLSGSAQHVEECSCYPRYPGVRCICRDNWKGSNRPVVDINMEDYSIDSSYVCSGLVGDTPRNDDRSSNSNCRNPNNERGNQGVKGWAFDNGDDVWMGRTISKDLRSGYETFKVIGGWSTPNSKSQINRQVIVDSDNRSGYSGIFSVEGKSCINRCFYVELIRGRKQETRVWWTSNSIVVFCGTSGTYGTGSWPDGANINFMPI

Cc1cc(N=Nc2ccc(N=Nc3c(O)c(S(=O)(=O)O)cc4cc(S(=O)(=O)O)ccc34)cc2C)ccc1N=Nc1ccc2cc(S(=O)(=O)O)cc(S(=O)(=O)O)c2c1 [Compound 1, 7-[2-[4-[2-[4-[2-(2-hydroxy-3,6-disulfo-1-naphthalenyl)diazenyl]-2-methylphenyl]diazenyl]-2-methylphenyl]diazenyl]-1,3-naphthalenedisulfonic acid]
NA inhibition using HA assay MIC, IAV 5258/09 [1]: 10.00 ± 0.00 µM
IC50 [2]: 18500 ± 9590 nM
IC50 [3]: 7170 ± 960 nM
NA inhibition using HA assay MIC, S. p. DSM20566 [4]: 7.26 ± 3.75 µM
inhibition at 50 µM [5]: 49%
IC50 [6]: 320 ± 50 nM
Binding mechanism [7]: Mixed
binding kinetics (effect of pre-incubation on Ki) [7]: fast-binding inhibitor
IC50 [8]: 20400 ± 2510 nM
Binding mechanism [9]: Mixed
alpha (fit in Lineweaver-Burk plot, Supplementary Figure 2C) [9]: 5,5
Ki ([9]; Ki): 160 ± 30 nM
Ki ([9]; Ki (fit in Lineweaver-Burk plot, Supplementary Figure 2C)): 143 nM
Binding mechanism [10]: Mixed
alpha (fit in Lineweaver-Burk plot, Supplementary Figure 2B) [10]: 12,9
Ki ([10]; Ki): 120 ± 10 nM
Ki ([10]; Ki (fit in Lineweaver-Burk plot, Supplementary Figure 2B)): 103 nM
IC50 [11]: 28800 ± 13100 nM
IC50 [12]: 1420 ± 440 nM
Binding mechanism [13]: Mixed
Ki ([13]; Ki): 190 ± 20 nM
Ki ([13]; Ki (fit printed in Lineweaver-Burk plot, Supplementary Figure 2D)): 172 nM
Decrease of plaque formation, compound during the whole replication cycle [14]: up to 100%
Plaque numbers after pretreatment of MDCK cells [14]: not affected
Reduction of plaque number after pretreatment of the cell-free virus [14]: ~ 95%
Reduction of plaque number, compound added during virus adsorption [14]: 50%
sample concentrations provoking erythrocyte lysis, bacterial HA-assay [15]: no
Binding mechanism [16]: Mixed
Ki [16]: 160 ± 10 nM
alpha (fit printed in Lineweaver-Burk plot, Supplementary Figure 2E) [16]: 3,7
sample concentrations provoking erythrocyte lysis, viral HA-assay [17]: no
CC50 [18]: > 100000 nM
Mean reduction in plaque numbers ± SD [19]: 96.10 ± 3.45% and 96.46 ± 1.08% and 97.76 ± 0.65% and 94.12 ± 3.06%
Mean ± SD of both experiments, reduction in plaque numbers [19]: 95.29 ± 1.65% and 96.93 ± 1.17%
Binding mechanism [20]: Mixed
Ki [20]: 110 ± 20 nM
alpha (fit printed in Lineweaver-Burk plot, Supplementary Figure 2A) [20]: 7,8
Activity (bactericidal or bacteriostatic) [21]: bacteriostatic
cfu per agar plate ([21]; 18 h, then subculture): > 150
IC50 [22]: < 15000 nM
